Assay results reported in US9926281B2 (priority 2014, dated 2018).

Tests used:
rnADAMTS-5 (1-564-6H) = rnADAMTS-5 (1-564-6H) (Rattus norvegicus, UniProt Q6TY19); conditions: read-out: Rat ADAMTS-5 potency IC50
human TACE = human TACE (Homo sapiens (Human), UniProt P78536); conditions: read-out: TACE potency IC50
human MMP13 = human MMP13 (Homo sapiens (Human), UniProt P45452); conditions: read-out: hMMP-13 potency IC50
Method: Human MMP13 is preactivated by incubated the enzyme in the same buffer complemented with 1 mM freshly prepared p-Aminophenylmercuric acetate (AMPA) for 1 hour at 37° C.

human ADAMTS-5 = human ADAMTS-5 (Homo sapiens (Human), UniProt Q9UNA0); conditions: read-out: hADAMTS-5 potency IC50
human ADAMTS-5, sequence (Q9UNA0 262-930): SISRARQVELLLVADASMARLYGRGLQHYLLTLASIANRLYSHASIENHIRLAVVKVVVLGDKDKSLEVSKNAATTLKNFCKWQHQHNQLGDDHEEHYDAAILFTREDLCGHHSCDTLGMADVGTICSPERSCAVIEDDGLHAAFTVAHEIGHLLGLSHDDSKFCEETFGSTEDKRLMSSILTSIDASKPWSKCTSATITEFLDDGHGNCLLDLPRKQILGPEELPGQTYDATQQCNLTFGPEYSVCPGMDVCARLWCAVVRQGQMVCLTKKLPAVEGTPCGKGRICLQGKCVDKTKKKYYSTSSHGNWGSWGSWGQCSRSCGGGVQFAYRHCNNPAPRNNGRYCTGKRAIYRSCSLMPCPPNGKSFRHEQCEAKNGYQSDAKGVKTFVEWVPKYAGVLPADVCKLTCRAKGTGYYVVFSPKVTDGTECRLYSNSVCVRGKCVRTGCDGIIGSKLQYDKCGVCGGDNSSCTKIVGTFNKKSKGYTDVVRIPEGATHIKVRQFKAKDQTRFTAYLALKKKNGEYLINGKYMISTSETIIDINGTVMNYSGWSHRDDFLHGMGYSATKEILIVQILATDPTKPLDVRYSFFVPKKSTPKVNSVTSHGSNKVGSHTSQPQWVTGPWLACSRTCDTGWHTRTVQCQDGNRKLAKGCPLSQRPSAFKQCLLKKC
Method: Finally, the fluorescence is read on the Envision (Perkin Elmer) after an incubation of 90 min at 37° C.

human TACE, sequence (P78536 whole entry, looked up, change not shown): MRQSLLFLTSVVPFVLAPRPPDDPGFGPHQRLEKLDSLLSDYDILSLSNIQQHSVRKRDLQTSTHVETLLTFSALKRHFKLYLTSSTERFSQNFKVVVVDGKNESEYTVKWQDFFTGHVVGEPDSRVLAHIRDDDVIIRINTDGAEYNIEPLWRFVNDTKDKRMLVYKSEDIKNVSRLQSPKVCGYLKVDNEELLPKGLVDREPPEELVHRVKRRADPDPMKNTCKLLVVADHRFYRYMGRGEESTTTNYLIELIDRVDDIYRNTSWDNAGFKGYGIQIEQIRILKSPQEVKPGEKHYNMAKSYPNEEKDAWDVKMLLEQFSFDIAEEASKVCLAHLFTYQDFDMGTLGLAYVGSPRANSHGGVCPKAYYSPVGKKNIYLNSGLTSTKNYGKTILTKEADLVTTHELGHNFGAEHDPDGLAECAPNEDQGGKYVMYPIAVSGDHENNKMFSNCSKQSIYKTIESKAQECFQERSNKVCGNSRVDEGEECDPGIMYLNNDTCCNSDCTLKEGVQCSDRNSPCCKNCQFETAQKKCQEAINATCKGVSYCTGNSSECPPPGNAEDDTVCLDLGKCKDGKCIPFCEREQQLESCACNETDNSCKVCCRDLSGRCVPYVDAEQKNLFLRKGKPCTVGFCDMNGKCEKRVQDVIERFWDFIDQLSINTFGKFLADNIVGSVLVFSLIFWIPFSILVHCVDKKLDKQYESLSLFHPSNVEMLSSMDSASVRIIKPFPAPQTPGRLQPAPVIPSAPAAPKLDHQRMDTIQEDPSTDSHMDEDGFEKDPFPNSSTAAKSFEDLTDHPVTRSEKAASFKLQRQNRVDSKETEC

| SMILES | IC50 (rnADAMTS-5 (1-564-6H)) [nM] | IC50 (human TACE) [nM] | IC50 (human MMP13) [nM] | IC50 (human ADAMTS-5) [nM] |
| --- | --- | --- | --- | --- |
| COCCN(C)CC1(CCC(=O)N2CCN(c3cccc(Cl)c3)CC2)NC(=O)NC1=O (stereo not drawn) [compound 154, 5-[3-[4-(3-chlorophenyl)piperazin-1-yl]-3-oxo-propyl]-5-[[2-methoxyethyl(methyl)amino]methyl]imidazolidine-2,4-dione] | 507 | > 20000 | > 4000 |  |
| Cc1ccc(Cl)cc1N1CCN(C(=O)CCC2(c3ccc(Cl)cc3)NC(=O)NC2=O)CC1 (stereo not drawn) [compound 75, 5-[3-[4-(5-chloro-2-methyl-phenyl)piperazin-1-yl]-3-oxo-propyl]-5-(4-chlorophenyl)imidazolidine-2,4-dione] | 141 | 550 | > 20000 |  |
| Cc1c(Cl)cc(Cl)cc1N1CCN(C(=O)CCC2(C)NC(=O)NC2=O)C[C@@H]1C (stereo partly drawn) [compound 178, 5-[3-[(3S)-4-(3,5-dichloro-2-methyl-phenyl)-3-methyl-piperazin-1-yl]-3-oxo-propyl]-5-methyl-imidazolidine-2,4-dione] | 344 |  |  | 577 |
| Cc1ccc(F)cc1N1CCN(C(=O)CCC2(C3CC3)NC(=O)NC2=O)CC1 (stereo not drawn) [compound 116, 5-cyclopropyl-5-[3-[4-(5-fluoro-2-methyl-phenyl)piperazin-1-yl]-3-oxo-propyl]imidazolidine-2,4-dione] | 29 | > 4640 | > 20000 |  |
| C[C@H]1CN(C(=O)CCC2(c3cccnc3)NC(=O)NC2=O)CCN1c1ccccc1 (stereo partly drawn) [compound 136, 5-[3-[(3S)-3-methyl-4-phenyl-piperazin-1-yl]-3-oxo-propyl]-5-(3-pyridyl)imidazolidine-2,4-dione] | 242 | > 20000 | > 20000 |  |
| C[C@H]1CN(C(=O)CCC2(C3CC3)NC(=O)NC2=O)CCN1c1ccc(Cl)cc1 (stereo partly drawn) [compound 147, 5-[3-[(3S)-4-(4-chlorophenyl)-3-methyl-piperazin-1-yl]-3-oxo-propyl]-5-cyclopropyl-imidazolidine-2,4-dione] | 99 | > 4000 | > 4000 |  |
| Cc1ccc(F)cc1N1CCN(C(=O)CCC2(C)NC(=O)NC2=O)C[C@@H]1C (stereo partly drawn) [compound 145, 5-[3-[(3S)-4-(5-fluoro-2-methyl-phenyl)-3-methyl-piperazin-1-yl]-3-oxo-propyl]-5-methyl-imidazolidine-2,4-dione] | 563 | > 4000 | > 20000 |  |
| O=C1NC(=O)C(CCC(=O)N2CCN(c3cccc(Cl)c3)CC2)(C2CC2)N1 (stereo not drawn) [compound 34, 5-[3-[4-(3-chlorophenyl)piperazin-1-yl]-3-oxo-propyl]-5-cyclopropyl-imidazolidine-2,4-dione] | 41 | > 4000 | 3210 |  |
| COC(CC1(C)NC(=O)NC1=O)C(=O)N1CCN(c2cccc(F)c2)[C@@H](C)C1 (stereo partly drawn) [compound 294, 5-[3-[(3S)-4-(3-fluorophenyl)-3-methyl-piperazin-1-yl]-2-methoxy-3-oxo-propyl]-5-methyl-imidazolidine-2,4-dione] | 128 | > 20000 |  | 134 |
| C[C@@H](C[C@@]1(C)NC(=O)NC1=O)C(=O)N1CCN(c2ccc(F)c(Cl)c2)[C@@H](C)C1 [Cpd 265] | 22 | > 4000 |  | 18 |
| C[C@]1(CCC(=O)N2CCN(c3cc(Cl)cc(Cl)c3)CC2)NC(=O)NC1=O [compound 159, (5R)-5-[3-[4-(3,5-dichlorophenyl)piperazin-1-yl]-3-oxo-propyl]-5-methyl-imidazolidine-2,4-dione] | 127 | 1870 | > 20000 |  |
| C[C@H]1CN(C(=O)CCC2(C3CC3)NC(=O)NC2=O)CCN1c1cccc(Cl)c1 (stereo partly drawn) [compound 152, 5-[3-[(3S)-4-(3-chlorophenyl)-3-methyl-piperazin-1-yl]-3-oxo-propyl]-5-cyclopropyl-imidazolidine-2,4-dione] | 62 | > 20000 | > 20000 |  |
| C[C@H]1CN(C(=O)CCC2(C3CC3)NC(=O)NC2=O)CCN1c1ccccc1 (stereo partly drawn) [compound 135, 5-cyclopropyl-5-[3-[(3S)-3-methyl-4-phenyl-piperazin-1-yl]-3-oxo-propyl]imidazolidine-2,4-dione] | 125 | > 20000 | > 20000 |  |
| O=C1NC(=O)C(CCC(=O)N2CCN(c3cccc(F)c3)CC2)(C2CC2)N1 (stereo not drawn) [compound 115, 5-cyclopropyl-5-[3-[4-(3-fluorophenyl)piperazin-1-yl]-3-oxo-propyl]imidazolidine-2,4-dione] | 38 | > 20000 | > 4000 |  |
| CS(=O)(=O)c1ccc(C2(CCC(=O)N3CCN(c4cccc(Cl)c4)CC3)NC(=O)NC2=O)cc1 (stereo not drawn) [compound 124, 5-[3-[4-(3-chlorophenyl)piperazin-1-yl]-3-oxo-propyl]-5-(4-methylsulfonylphenyl)imidazolidine-2,4-dione] | 37 | 880 | 1280 |  |
| C[C@H]1CN(C(=O)CCC2(C)NC(=O)NC2=O)CCN1c1cc(F)cc(F)c1 (stereo partly drawn) [compound 156, 5-[3-[(3S)-4-(3,5-difluorophenyl)-3-methyl-piperazin-1-yl]-3-oxo-propyl]-5-methyl-imidazolidine-2,4-dione] | 128 | > 20000 | > 20000 |  |
| N#Cc1cccc(N2CCN(C(=O)CCC3(C4CC4)NC(=O)NC3=O)CC2)c1 (stereo not drawn) [compound 195, 3-[4-[3-(4-cyclopropyl-2,5-dioxo-imidazolidin-4-yl)propanoyl]piperazin-1-yl]benzonitrile] | 262 |  |  | 318 |
| O=C1NC(=O)C(CCC(=O)N2CCN(c3cccc(Cl)c3)CC2)(CNCc2ccccc2)N1 (stereo not drawn) [compound 184, 5-[(benzylamino)methyl]-5-[3-[4-(3-chlorophenyl)piperazin-1-yl]-3-oxo-propyl]imidazolidine-2,4-dione] | 280 |  |  | 272 |
| CC(CC1(C)NC(=O)NC1=O)C(=O)N1CCN(c2cc(Cl)cc(Cl)c2)[C@@H](C)C1 (stereo partly drawn) [compound 420, 5-(3-((S)-4-(3,5-dichlorophenyl)-3-methylpiperazin-1-yl)-2-methyl-3-oxopropyl)-5-methylimidazolidine-2,4-dione] |  | 2980 | > 14000 | 32 |
| COCC1(CC(C)C(=O)N2CCN(c3cc(Cl)cc(Cl)c3)CC2)NC(=O)NC1=O (stereo not drawn) [compound 427, 5-(3-(4-(3,5-dichlorophenyl)piperazin-1-yl)-2-methyl-3-oxopropyl)-5-(methoxymethyl)imidazolidine-2,4-dione] |  | 337 | > 4000 | 20 |
| COCC1(CC(C)C(=O)N2CCN(c3cc(Cl)cc(Cl)c3)CC2)NC(=O)NC1=O (stereo not drawn) [compound 222, 5-[3-[4-(3,5-dichlorophenyl)piperazin-1-yl]-2-methyl-3-oxo-propyl]-5-(methoxymethyl)imidazolidine-2,4-dione] |  | 337 | > 4000 | 20 |
| CC(CC1(COCc2ccccc2)NC(=O)NC1=O)C(=O)N1CCN(c2cc(Cl)cc(Cl)c2)CC1 (stereo not drawn) [compound 415, 5-(benzyloxymethyl)-5-(3-(4-(3,5-dichlorophenyl)piperazin-1-yl)-2-methyl-3-oxopropyl)imidazolidine-2,4-dione] |  | 396 | 1300 | 28 |
| CCC(CC1(C)NC(=O)NC1=O)C(=O)N1CCN(c2cc(Cl)cc(Cl)c2)CC1 (stereo not drawn) [compound 435, 5-(2-(4-(3,5-dichlorophenyl)piperazine-1-carbonyl)butyl)-5-methylimidazolidine-2,4-dione] |  | 225 | 1220 | 15 |
| C[C@H]1CN(C(=O)CC[C@@]2(C3CC3)NC(=O)NC2=O)CCN1c1ccc(Cl)c(Cl)c1 [compound 416, 5-cyclopropyl-5-(3-((S)-4-(3,4-dichlorophenyl)-3-methylpiperazin-1-yl)-3-oxopropyl)imidazolidine-2,4-dione] |  | > 4000 | 2880 | 12 |
| CC(CC1(c2ccccn2)NC(=O)NC1=O)C(=O)N1CCN(c2cc(Cl)cc(Cl)c2)CC1 (stereo not drawn) [compound 231, 5-[3-[4-(3,5-dichlorophenyl)piperazin-1-yl]-2-methyl-3-oxo-propyl]-5-(2-pyridyl)imidazolidine-2,4-dione] |  | 106 | 766 | 20 |
| O=C1NC(=O)C(CCC(=O)N2CCN(c3cccc(Cl)c3)CC2)(CN2CCOCC2)N1 (stereo not drawn) [compound 155, 5-[3-[4-(3-chlorophenyl)piperazin-1-yl]-3-oxo-propyl]-5-(morpholinomethyl)imidazolidine-2,4-dione] |  | > 20000 | > 20000 | 1250 |
| NCC1(CCC(=O)N2CCN(c3cccc(Cl)c3)CC2)NC(=O)NC1=O (stereo not drawn) [compound 171, 5-(aminomethyl)-5-[3-[4-(3-chlorophenyl)piperazin-1-yl]-3-oxo-propyl]imidazolidine-2,4-dione] |  | > 20000 | > 4000 | 305 |
| O=C1NC(=O)C(CC(O)C(=O)N2CCN(c3cc(Cl)cc(Cl)c3)CC2)(C2CC2)N1 (stereo not drawn) [compound 201, 5-cyclopropyl-5-[3-[4-(3,5-dichlorophenyl)piperazin-1-yl]-2-hydroxy-3-oxo-propyl]imidazolidine-2,4-dione] |  | > 20000 | > 20000 | 307 |
| CCC(CC1(C)NC(=O)NC1=O)C(=O)N1CCN(c2cc(Cl)cc(Cl)c2)CC1 (stereo not drawn) [compound 236, 5-[2-[4-(3,5-dichlorophenyl)piperazine-1-carbonyl]butyl]-5-methyl-imidazolidine-2,4-dione] |  | 225 | 1220 | 15 |
| COCC1(CC(C)C(=O)N2CCN(c3cc(Cl)cc(Cl)c3)[C@@H](C)C2)NC(=O)NC1=O (stereo partly drawn) [compound 429, 5-(3-((S)-4-(3,5-dichlorophenyl)-3-methylpiperazin-1-yl)-2-methyl-3-oxopropyl)-5-(methoxymethyl)imidazolidine-2,4-dione] |  | > 3980 | > 20000 | 53 |
